pKi: −log10 of the molar value. Read-outs that look alike come from different tables or passages of the source.
Tests used:
[1] = biological target: T1, recombinant human 5-HT5A receptor (Homo sapiens, UniProt P47898); assay: [3H]LSD radioligand binding assay; conditions: for Ki: [3H]LSD (approximately 1 nM), membranes from HEK-EBNA cells transiently expressing 5-HT5A receptors, Ki calculated from IC50 using the Cheng-Prussoff equation, read-out: Ki/nM 5-HT5A
T1 construct: expressed in transfected cells; host or cells: HEK-EBNA (Human Embryonic Kidney-EBNA) cells, transient cDNA expression, membranes
Description: A [^3H]LSD radioligand binding assay was used to determine the affinity of the compounds for the recombinant human 5-HT5A receptor, in membranes from transiently (cDNA) expressed 5-HT5A receptors in Human Embryonic Kidney-EBNA (HEK-EBNA) cells. Assay buffer consisted of Tris (50 mM) buffer containing 1 mM EGTA, 10 mM MgCl2 (pH 7.4) and 10 μM pargyline. The binding assay was carried out in 96-well-plates in the presence of [^3H]LSD (approximately 1 nM), approximately 2 μg/well of membrane protein, and 0.5 mg of Ysi-poly-1-lysine SPA beads in a final volume of 200 μl of buffer. Non-specific binding was defined using methiothepin 2 μM. Compounds were tested at 10 concentrations. All assays were conducted in duplicate and repeated at least two times. Assay plates were incubated for 120 min at room temperature before centrifugation. Bound ligand was determined using a Packard Topcount scintillation counter. IC50 values were calculated using a non-linear curve fitting program and Ki values calculated using the Cheng-Prussoff equation.

T1 sequence (P47898 whole entry): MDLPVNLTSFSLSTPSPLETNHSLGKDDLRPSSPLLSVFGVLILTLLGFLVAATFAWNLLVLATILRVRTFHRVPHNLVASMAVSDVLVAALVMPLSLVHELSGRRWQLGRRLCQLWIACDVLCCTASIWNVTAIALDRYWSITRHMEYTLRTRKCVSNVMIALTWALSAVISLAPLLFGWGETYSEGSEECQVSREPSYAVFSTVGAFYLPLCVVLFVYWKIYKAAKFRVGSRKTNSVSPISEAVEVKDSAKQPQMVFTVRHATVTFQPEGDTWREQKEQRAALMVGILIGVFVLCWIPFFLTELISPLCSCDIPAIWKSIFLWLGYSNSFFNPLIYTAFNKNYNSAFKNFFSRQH

Row | Structure (SMILES) | Ki [1] [nM] | melting point [°C] | pKi [1]
1 | COc1ccc(OC(=O)Nc2ccc3nc(N[C@@H]4CCc5ccccc54)ccc3c2)cc1 [Example 47, [2-((R)-Indan-1-ylamino)-quinolin-6-yl]-carbamic acid 4-methoxy-phenyl ester] | – | – | 7.70
2 | O=C(Nc1ccc2nc(N[C@@H]3CCc4ccccc43)ccc2c1)c1ccc(F)cc1 [Example 50, 4-Fluoro-N-[2-((R)-indan-1-ylamino)-quinolin-6-yl]-benzamide] | 72.5 | – | –
3 | Cc1noc(C)c1NC(=O)Nc1ccc2nc(N[C@@H]3CCc4ccccc43)ccc2c1 [Example 42, 1-(3,5-Dimethyl-isoxazol-4-yl)-3-[2-((R)-indan-1-ylamino)-quinolin-6-yl]-urea] | 25.8 | – | –
4 | C[C@H](NC(=O)Nc1ccc2nc(N[C@@H]3CCc4ccccc43)ccc2c1)c1ccccc1 [Example 28, 1-[2-((R)-Indan-1-ylamino)-quinolin-6-yl]-3-((S)-1-phenyl-ethyl)-urea] | 36.7 | – | –
5 | O=C(Nc1ccc2nc(N[C@@H]3CCc4ccccc43)ccc2c1)Nc1ccccc1F [Example 25, 1-(2-Fluoro-phenyl)-3-[2-((R)-indan-1-ylamino)-quinolin-6-yl]-urea] | 4.2 | – | –
6 | O=C(Nc1ccc(Cl)nc1)Nc1ccc2nc(N[C@@H]3CCc4ccccc43)ccc2c1 [Example 31, 1-(6-Chloro-pyridin-3-yl)-3-[2-((R)-indan-1-ylamino)-quinolin-6-yl]-urea] | 16.4 | – | –
7 | Cc1nc[nH]c1CNc1ccc2nc(N[C@@H]3CCc4ccccc43)ccc2c1 [Example 17, N^2—(R)-Indan-1-yl-N^6-(5-methyl-3-H-imidazol-4-ylmethyl)-quinoline-2,6-diamine] | 7.6 | – | –
8 | COc1cccc(COc2ccc3nc(N[C@@H]4CCc5ccccc54)ccc3c2)c1 [Example 2, (R)-Indan-1-yl-[6-(3-methoxy-benzyloxy)-quinolin-2-yl]-amine] | 92.4 | – | –
9 | O=C(NC(=S)Nc1ccc2nc(N[C@@H]3CCc4ccccc43)ccc2c1)c1ccccc1 [Example 63, 1-Benzoyl-3-[2-((R)-indan-1-ylamino)-quinolin-6-yl]-thiourea] | 390 | – | –
10 | O=C(Nc1ccc(F)cc1)Nc1ccc2nc(N[C@@H]3CCc4ccccc43)ccc2c1 [Example 19, 1-(4-Fluoro-phenyl)-3-[2-((R)-indan-1-ylamino)-quinolin-6-yl]-urea] | 6.5 | – | –
11 | c1ccc2c(c1)CC[C@H]2Nc1ccc2cc(NCc3ccncc3)ccc2n1 [Example 15, N^2—(R)-Indan-1-yl-N^6-pyridin-4-ylmethyl-quinoline-2,6-diamine] | 33.7 | – | –
12 | COc1ccccc1NC(=O)Nc1ccc2nc(N[C@@H]3CCc4ccccc43)ccc2c1 [Example 23, 1-[2-((R)-Indan-1-ylamino)-quinolin-6-yl]-3-(2-methoxy-phenyl)-urea] | 25.6 | – | –
13 | O=C(NCc1ccc(F)cc1)c1ccc2nc(N[C@@H]3CCc4ccccc43)ccc2c1 [Example 52, 2-((R)-Indan-1-ylamino)-quinoline-6-carboxylic acid 4-fluoro-benzylamide] | – | 175 | –
14 | Fc1ccc(CNCc2ccc3nc(N[C@@H]4CCc5ccccc54)ccc3c2)cc1 [Example 64, {6-[(4-Fluoro-benzylamino)-methyl]-quinolin-2-yl}-(R)-indan-1-yl-amine] | 348 | – | –
15 | c1ccc2c(c1)CC[C@H]2Nc1ccc2cc(NCc3cccc4[nH]ccc34)ccc2n1 [Example 11, N^2—(R)-Indan-1-yl-N^6-(1-H-indol-4-ylmethyl)-quinoline-2,6-diamine] | 9.4 | – | –
16 | C[C@@H](NC(=O)Nc1ccc2nc(N[C@@H]3CCc4ccccc43)ccc2c1)c1ccccc1 [Example 27, 1-[2-((R)-Indan-1-ylamino)-quinolin-6-yl]-3-((R)-1-phenyl-ethyl)-urea] | 9.8 | – | –
17 | CN(c1ccc(Cl)cc1)S(=O)(=O)Nc1ccc2nc(N[C@@H]3CCc4ccccc43)ccc2c1 [Example 40, N-(4-chlorophenyl)-N′-{2-[(1R)-2,3-dihydro-1H-inden-1-ylamino]quinolin-6-yl}-N-methylsulfamide] | 29.6 | – | –
18 | O=S(=O)(Nc1ccc2nc(N[C@@H]3CCc4ccccc43)ccc2c1)c1ccc(F)cc1 [Example 14, 4-Fluoro-N-[2-((R)-indan-1-ylamino)-quinolin-6-yl]-benzenesulfonamide] | 36.4 | – | –
19 | Cn1cncc1CNC(=O)Nc1ccc2nc(N[C@@H]3CCc4ccccc43)ccc2c1 [Example 45, 1-[2-((R)-Indan-1-ylamino)-quinolin-6-yl]-3-(3-methyl-3H-imidazol-4-ylmethyl)-urea] | 10.6 | – | –
20 | c1ccc2c(c1)CC[C@H]2Nc1ccc2cc(NCc3nccs3)ccc2n1 [Example 13, N^2—(R)-Indan-1-yl-N^6-thiazol-2-ylmethyl-quinoline-2,6-diamine] | 7.6 | – | –
21 | O=C(NCc1ccc2nc(N[C@@H]3CCc4ccccc43)ccc2c1)c1ccc(F)cc1 [Example 54, 4-Fluoro-N-[2-((R)-indan-1-ylamino)-quinolin-6-ylmethyl]-benzamide] | 141 | – | –

Further lines, with some results ahead:

Row | Ki [1] [nM] | melting point [°C] | Structure (SMILES) | pKi [1]
22 | 15.7 | 88 | Cc1cc(C)nc(Nc2ccc3nc(N[C@@H]4CCc5ccccc54)ccc3c2)n1 [Example 67, N^6-(4,6-Dimethyl-pyrimidin-2-yl)-N^2—(R)-indan-1-yl-quinoline-2,6-diamine] | –
23 | 3.4 | 150 | COc1cccc2c1C(Nc1ccc3cc(Nc4nc(C)cc(C)n4)ccc3n1)CC2 (racemic) [Example 93, rac-N^6-(4,6-Dimethyl-pyrimidin-2-yl)-N^2-(7-methoxy-indan-1-yl)-quinoline-2,6-diamine] | –
24 | – | 128 | FC(F)(F)c1ccnc(Nc2ccc3nc(NC4COc5ccccc54)ccc3c2)n1 (racemic) [Example 98, rac-N^2-(2,3-Dihydro-benzofuran-3-yl)-N^6-(4-trifluoromethyl-pyrimidin-2-yl)-quinoline-2,6-diamine] | –
25 | 24.8 | 226 | c1ccc2c(c1)CC[C@H]2Nc1ccc2cc(Nc3nnc(C4CC4)o3)ccc2n1 [Example 76, N^6-(5-Cyclopropyl-[1,3,4]oxadiazol-2-yl)-N^2—(R)-indan-1-yl-quinoline-2,6-diamine] | –
26 | 21.2 | 129 | Cc1nnc(Nc2ccc3nc(N[C@@H]4CCc5ccccc54)ccc3c2)o1 [Example 77, N^2—(R)-Indan-1-yl-N^6-(5-methyl-[1,3,4]oxadiazol-2-yl)-quinoline-2,6-diamine] | –
27 | 4.3 | 196 | COc1cccc2c1C(Nc1ccc3cc(Nc4nccc(C(F)(F)F)n4)ccc3n1)CC2 (racemic) [Example 92, rac-N^2-(7-Methoxy-indan-1-yl)-N^6-(4-trifluoromethyl-pyrimidin-2-yl)-quinoline-2,6-diamine] | –
28 | 20 | 103 | Cc1ccnc(Nc2ccc3nc(N[C@@H]4CCc5ccccc54)ccc3c2)n1 [Example 68, N^2—(R)-Indan-1-yl-N^6-(4-methyl-pyrimidin-2-yl)-quinoline-2,6-diamine] | –
29 | 7.3 | 166 | Cc1cc(Nc2ccc3nc(NC4CCc5cc(F)ccc54)ccc3c2)no1 (racemic) [Example 106, rac-N^2-(5-Fluoro-indan-1-yl)-N^6-(5-methyl-isoxazol-3-yl)-quinoline-2,6-diamine] | –
30 | 11.8 | 185 | COc1cccc2c1C(Nc1ccc3cc(Nc4nccc(C(F)(F)F)n4)ccc3n1)CO2 (racemic) [Example 110, rac-N^2-(4-Methoxy-2,3-dihydro-benzofuran-3-yl)-N^6-(4-trifluoromethyl-pyrimidin-2-yl)-quinoline-2,6-diamine] | –
31 | 20.4 | 77 | c1ccc(Nc2ccc3nc(N[C@@H]4CCc5ccccc54)ccc3c2)nc1 [Example 69, N^2—(R)-Indan-1-yl-N^6-pyridin-2-yl-quinoline-2,6-diamine] | –
32 | 8 | – | COc1cccc2c1C(Nc1ccc3cc(Nc4cccc(C)n4)ccc3n1)CO2 (racemic) [Example 112, rac-N^2-(4-Methoxy-2,3-dihydro-benzofuran-3-yl)-N^6-(6-methyl-pyridin-2-yl)-quinoline-2,6-diamine] | –
33 | 21.2 | – | COc1cccc2c1C(Nc1ccc3cc(NC(=O)Cn4ccnc4)ccc3n1)CC2 (racemic) [Example 100, rac-2-Imidazol-1-yl-N-[2-(7-methoxy-indan-1-ylamino)-quinolin-6-yl]-acetamide] | –
34 | – | 195 | Cc1cc(Nc2ccc3nc(NC4COc5ccccc54)ccc3c2)no1 (racemic) [Example 101, rac-N^2-(2,3-Dihydro-benzofuran-3-yl)-N^6-(5-methyl-isoxazol-3-yl)-quinoline-2,6-diamine] | –
35 | 6.8 | – | Cc1cccc(Nc2ccc3nc(NC4CCc5cc(F)ccc54)ccc3c2)n1 (racemic) [Example 105, rac-N^2-(5-Fluoro-indan-1-yl)-N^6-(6-methyl-pyridin-2-yl)-quinoline-2,6-diamine] | –
36 | – | 213 | Cc1cc(C)nc(Nc2ccc3nc(NC4COc5ccccc54)ccc3c2)n1 (racemic) [Example 97, rac-N^2-(2,3-Dihydro-benzofuran-3-yl)-N^6-(4,6-dimethyl-pyrimidin-2-yl)-quinoline-2,6-diamine] | –
37 | 3.4 | – | COc1cccc2c1C(Nc1ccc3cc(Nc4cccc(C)n4)ccc3n1)CC2 (racemic) [Example 94, rac-N^2-(7-Methoxy-indan-1-yl)-N^6-(6-methyl-pyridin-2-yl)-quinoline-2,6-diamine] | –
